Measurements reported in PubChem BioAssay AID2305 (GlaxoSmithKline (GSK), 2010).

What follows are molecules tested on P. falciparum 3D7 growth, pLDH absorbance (assay: P. falciparum 3D7 growth inhibition, dose response, strain 3D7 (AID 2305)).
In the case of `CCN(CC)C(=NCCCCCCN=C(/N=C(\N)c1ccc(Cl)cc1)N(CC)CC)/N=C(\N)c1ccc(Cl)cc1`, the IC50 is reported as 380 nM. `CN(C)C(=NCCCCCCN=C(NC(N)=NCc1ccc(Cl)c(Cl)c1)N(C)C)NC(N)=NCc1ccc(Cl)c(Cl)c1` gave an IC50 of 300 nM. In the case of `CCCCc1ccc(-c2nc(NC(=O)Nc3nc(-c4ccccc4)[nH]c3C(=O)OCC)c(C(=O)OCC)[nH]2)cc1`, the IC50 is reported as 750 nM. `CN(C)c1ccc(CN2CCC(NC(=O)c3ccc(-c4ccc(N(C)C)cc4)s3)CC2)cc1` showed an IC50 of 1070 nM. In the case of `COc1ccc(NS(=O)(=O)c2cc(NC(=O)Cn3ccccc3=O)ccc2N2CCCCC2)cc1`, the IC50 is reported as 700 nM. For `NS(=O)(=O)c1cccc(Nc2nccc(-c3cnn4ncccc34)n2)c1`, the IC50 was 660 nM. Work on `Cc1ccc(O)cc1Nc1c(C(N)=O)cnc2ccc(-c3cncs3)cc12` yielded an IC50 of 670 nM. `Clc1cc(Nc2ncnc3sc(C#C[C@H]4CCCN4)cc23)ccc1OCc1cccnc1Cl` gave an IC50 of 570 nM. Molecule `O=C(NCc1cccc(F)c1)Nc1ccc(-c2cccc(-c3nc4ccc(F)cc4[nH]3)c2)cc1` has an IC50 of 770 nM. In the case of `Cc1ccc(N)cc1-c1nc(NC2CC(C)(C)NC(C)(C)C2)nc2c1ccc(=O)n2-c1c(F)cccc1F`, the IC50 is reported as 840 nM. Molecule `Cc1cc(Br)cnc1CCCCNc1cc(=O)c2ccccc2[nH]1` has an IC50 of 1160 nM. In the case of `CCOC(=O)c1c(CSc2ccccc2)oc2cc(CN(C)C)c(O)c(Cl)c12`, the IC50 is reported as 660 nM. In the case of `CC(C)(C)c1ccc(CN2CCC(CNC(=O)c3cc(-c4cccc(F)c4)cs3)C2)cc1` (configuration not stated), the IC50 is reported as 900 nM. `O=C(Nc1ccc(Cl)c(Cl)c1)C1CCC(=O)N1[C@@H](Cc1ccccc1)C(=O)NCCc1ccc(Cl)cc1` (some centres not stated) gave an IC50 of 1100 nM. Work on `Cc1cccn2c(=O)c3cc(C(=O)NCCN4CCOCC4)c(=N)n(CCc4ccccc4)c3nc12` yielded an IC50 of 470 nM. Molecule `CC(=O)OC[C@H]1O[C@@H](C#Cc2ccccc2)[C@H](OC(C)=O)[C@@H](OC(C)=O)[C@@H]1OC(C)=O` has an IC50 of 280 nM. With `O=C(C=Cc1ccc(C(=O)Nc2ccc(C3=NCCN3)cc2)cc1)Nc1ccc(C2=NCCN2)cc1` the IC50 was 30 nM. In the case of `COc1cc(CNC[C@@H](O)[C@H](Cc2ccccc2)NC(=O)c2cc(C3CCCC3)cc(N3CCCCS3(=O)=O)c2)cc(OC)c1`, the IC50 is reported as 700 nM. Molecule `O=S(=O)(NC1CCN(c2ccnc3ccccc23)C1)c1ccc(OC(F)(F)F)cc1` (configuration not stated) has an IC50 of 1080 nM. `COC(=O)c1ccc2nc(-c3cc(-c4cccc(-c5ccccc5)c4)cnc3N)[nH]c2c1` gave an IC50 of 210 nM. `CCC(C)(C)C1CCc2[nH]c3ccccc3c(=O)c2C1` (configuration not stated) was tested, and the IC50 was 380 nM. `CC1=C(C(=O)Nc2ccccc2)C(c2ccc([N+](=O)[O-])cc2)n2ncc(C(=O)Nc3ccccc3)c2N1` (configuration not stated) was tested, and the IC50 was 1240 nM. In the case of `C[C@@H]1CN(c2nc(NCCc3ccc(O)cc3)nc(NCc3ccccc3-c3ccc(C(F)(F)F)cc3)n2)C[C@H](C)N1`, the IC50 is reported as 530 nM. Work on `COc1ccccc1C(=O)N1CCN(Cc2cccs2)CC1` yielded an IC50 of 870 nM. For `Cc1c(-c2cccc(C(C)(C)NCCCN3CCCCC3)c2)cnc(N)c1C`, the IC50 was 940 nM. For `Cc1ccccc1OCC(O)CN1CCC(C2CCN(CC(O)COc3ccccc3C)CC2)CC1` (configuration not stated), the IC50 was 310 nM. With `COc1ccc(C=CC(=O)NC(=O)c2ccccc2OC(=O)c2ccccc2)cc1OC` the IC50 was 910 nM. In the case of `O=c1[nH]c(=O)n2c(nc3ccccc32)[nH]1`, the IC50 is reported as 170 nM. Work on `Cc1[nH]c(C)c(-c2ccc(S(=O)(=O)c3ccc(Cl)cc3)cc2)c(=O)c1Cl` yielded an IC50 of 140 nM. With `Cc1ccc(Nc2ccnc3ccc(C(F)(F)F)cc23)cc1O` the IC50 was 960 nM. Molecule `O=C(c1cccc(-c2noc(C(F)(F)F)n2)c1)N1CCN(c2nsc3ccccc23)CC1` has an IC50 of 140 nM. `Nc1nc(N)c2c(Cl)c(N3CCOCC3)ccc2n1` showed an IC50 of 80 nM. Work on `CN(CCCCCN1CCC(NC(=O)Nc2ccc(Oc3ccccc3)cc2)C1)C(=O)/C=C/c1ccc(Cl)c(Cl)c1` (configuration not stated) yielded an IC50 of 420 nM. Molecule `O=c1cc(NCCCNCc2cc(C(F)(F)F)ccc2Cl)[nH]c2ccccc12` has an IC50 of 1020 nM. Molecule `CCOC(=O)CCc1cc(F)c(F)c(OC[C@H](O)CNC(C)(C)C(O)c2ccc3ccccc3c2)c1` (some centres not stated) has an IC50 of 860 nM. `c1cc(CNc2ncc(-c3ccsc3)c(-c3nccs3)n2)ccn1` gave an IC50 of 360 nM. Work on `Nc1cccc(CNCc2ccc(-c3cccc(-c4nc5ccc(C(F)(F)F)cc5[nH]4)c3)cc2)c1` yielded an IC50 of 170 nM. `COc1ccc2nccc([C@@H](O)CN3CCC(NCc4ccc5c(c4)NC(=O)CS5)CC3)c2c1` was tested, and the IC50 was 570 nM. Work on `Cc1cccc2[nH]c(-c3cccc(-c4ccc(NC(=O)Nc5ccc(F)c(F)c5F)cc4)c3)nc12` yielded an IC50 of 170 nM. For `COc1ccc(Br)cc1C1[C@@H]2C(=O)N(c3ccc(Br)cc3)C(=O)[C@@H]2C2(C(=O)O)CC(OCc3ccccc3)CN12` (some centres not stated), the IC50 was 190 nM. With `COc1ccc(CN2CCC(CNCCc3c(Cl)cccc3Cl)CC2)cc1` the IC50 was 430 nM. `COc1cc(NC(=O)c2c(-c3c(Cl)cccc3Cl)noc2C)c(OC)cc1Cl` showed an IC50 of 920 nM. `CN(C)CCOc1ccc(N2CCN(CCCCNC(=O)c3ccc(NC(=O)c4ccc(Cl)cc4)cc3)CC2)cc1` gave an IC50 of 830 nM. Work on `CCCC(C)Nc1nc(C)cc(N[C@@H](Cc2ccccc2)C(=O)NCc2cccc(F)c2)n1` (some centres not stated) yielded an IC50 of 880 nM. Work on `CN(C)CCNCc1ccc(-c2ccc(-c3nc4ccccc4[nH]3)s2)cc1` yielded an IC50 of 570 nM. Molecule `Cc1ccccc1C1CCN(C2CCC(NC(=O)c3cc(-c4ccc(Cl)cc4)cs3)CC2)CC1` (configuration not stated) has an IC50 of 160 nM. `O=C(Nc1nccs1)c1cc(-c2cccnc2)nc2ccc(Br)cc12` gave an IC50 of 400 nM. `O=C(Nc1cccc(-c2ccc(-c3nc4ccc(F)cc4[nH]3)cc2)c1)c1ccncc1` was tested, and the IC50 was 280 nM. `NC(N)=NC(=O)Nc1cc(Cl)c(Cl)c(Cl)c1` gave an IC50 of 590 nM. Molecule `CCCCN1C(=O)C(c2ccccc2)(c2ccccc2)N=C1N` has an IC50 of 1030 nM. Work on `CC(C)N(Cc1cnc(N)c(C#N)n1)c1ccc(Cl)c(Cl)c1` yielded an IC50 of 840 nM. With `COc1ccc(C2CC(=O)C3=C(C2)NC(C)=C(C(=O)OC(C)C)C3c2ccc(O)cc2)cc1OC` (configuration not stated) the IC50 was 280 nM. `CN1CCc2cc(Br)c(O)cc2C1Cc1ccccc1Cl` (configuration not stated) showed an IC50 of 670 nM. `Cc1ccc2nc(-c3ccc(C(=O)NC4CCN(Cc5ccccc5)CC4)s3)[nH]c2c1` gave an IC50 of 1010 nM. With `CCOc1c(CNCCCNc2nc3ccccc3[nH]2)cc(I)cc1OC` the IC50 was 660 nM. `O=C1C(c2ccccc2)=C(Nc2ccc(OC(F)(F)F)cc2)c2ccccc21` was tested, and the IC50 was 110 nM. `CC(ON1C(N)=NC(N)=NC1(C)C)c1ccccc1` (configuration not stated) gave an IC50 of 10 nM. In the case of `Cc1cccc2[nH]c(-c3cccc(-c4cccc(C(=O)NCCN5CCCC5)c4)c3)nc12`, the IC50 is reported as 830 nM. Molecule `COc1cc(OC)c(NC(=O)Nc2ccnc3ccccc23)cc1Cl` has an IC50 of 750 nM. With `Cc1cnc(C(=O)Nc2cccc(-c3ccc(-c4nc5ccc(F)cc5[nH]4)cc3)c2)cn1` the IC50 was 640 nM. With `CN(Cc1cnc2nc(N)nc(N)c2n1)c1ccc(C(=O)N[C@H](CCC(=O)OC(C)(C)C)C(=O)N[C@@H](CCC(=O)OC(C)(C)C)C(=O)OC(C)(C)C)cc1` the IC50 was 1020 nM. For `O=C(NC1CCCCC1)N(Cc1cccc(-c2cccc(CNC3CCCC3)c2)c1)C1CCN(Cc2ccccc2)CC1`, the IC50 was 740 nM. `CCOC(=O)c1ccc(NC(=O)Nc2cccc(-c3ccc(-c4nc5ccc(C(F)(F)F)cc5[nH]4)cc3)c2)cc1` showed an IC50 of 210 nM. `C=CCn1c(Sc2ccc(C#N)c([N+](=O)[O-])c2)nnc1-c1ccc(Cl)cc1` was tested, and the IC50 was 670 nM. `Cc1c(S(=O)(=O)Nc2ccc3nccc(N4C[C@@H](C)N[C@@H](C)C4)c3c2)sc2ccc(Cl)cc12` showed an IC50 of 1020 nM. Work on `O=C(Nc1ccc(-c2nc3ccccc3[nH]2)cc1)c1cccc(S(=O)(=O)N2CCCC2)c1` yielded an IC50 of 740 nM. In the case of `CN1CCN(c2ccnc3ccc(NC(=O)Nc4c(Cl)cccc4Cl)cc23)CC1`, the IC50 is reported as 880 nM. Molecule `CCc1nc2c(cnn2CC)c(NC2CCOCC2)c1CNC(=O)N1CCOCC1` has an IC50 of 890 nM. `O=C(NCCCCCN1CCC(c2ccc(O)cc2)CC1)c1ccc(-c2ccccc2)cc1` was tested, and the IC50 was 930 nM. `COc1cc(Cc2cnc(N)nc2N)cc(OCCCCC#N)c1OC` was tested, and the IC50 was 1040 nM. `Cc1cccc2[nH]c(-c3cccc(-c4cccc(CNCCNC(=O)c5ccnn5C)c4)c3)nc12` gave an IC50 of 190 nM. Molecule `O=C(/C=C/c1ccc(Cl)c(Cl)c1)NCCCCCN1CCCN(C(=O)Nc2ccc(Br)cc2)CC1` has an IC50 of 780 nM. Work on `c1cc(CN2CCN(c3ccncc3)CC2)cc(-c2ccc(-c3nc4ccccc4[nH]3)cc2)c1` yielded an IC50 of 150 nM. With `COc1ccc(-c2nc(NC(=O)CSc3ccccc3)sc2C)cc1` the IC50 was 760 nM. Molecule `COc1ccc2cc(C=NNc3nc4ccccc4[nH]3)c(Cl)nc2c1` has an IC50 of 650 nM. Work on `CCCCCN1C(=O)C(c2ccccc2)(c2ccccc2)N=C1N` yielded an IC50 of 790 nM. In the case of `O=C(N[C@H]1CCN(Cc2ccc(OC3CCN(Cc4ccccc4)CC3)c(Cl)c2)C1)c1ccc(Cl)c(Cl)c1`, the IC50 is reported as 810 nM. Work on `CCN1CCN(CCCNc2c3ccccc3nc3ccccc23)CC1` yielded an IC50 of 800 nM. `CCCc1cc(Cc2cnc(N)nc2N)cc(CC)c1O` showed an IC50 of 1320 nM. `CC(C)(C)COC(=O)c1ccc(NC(=O)N[C@@H](Cc2ccc(O)cc2)C(=O)NC2CCN(Cc3ccc(O)cc3)C2)cc1` (some centres not stated) gave an IC50 of 670 nM. In the case of `Cc1[nH]c(C)c(-c2ccc(Oc3cc(Cl)cc(Cl)c3)cc2)c(=O)c1Br`, the IC50 is reported as 240 nM. With `CCNc1cc(C(=O)N[C@@H](Cc2ccccc2)[C@H](O)CNCC(C)C)cc(N2CCCC2=O)c1` the IC50 was 490 nM. `O=C(Nc1cc(Cl)ccc1O)c1cnn2c(C(F)(F)F)cc(-c3cccs3)nc12` gave an IC50 of 860 nM. In the case of `Nc1ccc2[nH]cc(C3CCN(CCC4CCN(C(=O)/C=C/c5ccc(Cl)c(Cl)c5)CC4)CC3)c2n1`, the IC50 is reported as 740 nM. In the case of `CC(=O)c1ccc(NC(=O)Nc2ccc(N(C)c3ccnc(Nc4cccc(CS(C)(=O)=O)c4)n3)cc2)cc1`, the IC50 is reported as 120 nM. In the case of `Cc1ccccc1C1CCN(C2CCC(NC(=O)/C=C/c3ccc(F)cc3)CC2)CC1` (configuration not stated), the IC50 is reported as 1340 nM. In the case of `COc1ccc(Cn2c(SCc3ccc(C)cc3)nc3cc(OC)c(OC)cc3c2=N)cc1Cl`, the IC50 is reported as 980 nM. Work on `CCCc1cc(Cc2cnc(N)nc2N)cc(CCC)c1OC` yielded an IC50 of 890 nM. `CC(C)(C)Oc1ccc(CC2NC3(C(=O)N(Cc4ccc(C(C)(C)C)cc4)c4ccccc43)C3C(=O)N(c4ccc(Br)cc4)C(=O)C23)cc1` (configuration not stated) gave an IC50 of 720 nM. For `Cc1nc2nc(N)nc(N)c2c(C)c1Cc1ccc(C#N)cc1`, the IC50 was 540 nM. `CN(C)c1ccc(N2C(N)=NC(N)=NC23CCCC3)cc1` showed an IC50 of 930 nM. For `Cc1cccc(CN2CCN(c3ncc(C(=O)NC4CC4)cc3Cl)CC2)c1`, the IC50 was 1310 nM. With `Cc1cc(NN=Cc2ccccc2F)c2cccc(C)c2n1` the IC50 was 760 nM. `Cc1cccc(CCCNC(=O)CN(c2cccc(C(F)(F)F)c2)S(=O)(=O)c2ccc(C(F)(F)F)cc2)c1` showed an IC50 of 680 nM. For `CC(C)(CNCc1ccc(Cl)c(Cl)c1)c1nc(-c2ccc(Cl)c(O)c2)c(-c2ccncc2)[nH]1`, the IC50 was 760 nM. In the case of `O=C(Nc1cccc(-c2nn3ccccc3c2-c2ccnc(Nc3ccc(C(=O)N4CCOCC4)cc3)n2)c1)c1c(F)cccc1F`, the IC50 is reported as 380 nM. In the case of `COc1ccccc1-c1sccc1C(=O)NC1(c2cc(Cl)cc(Cl)c2)CCCC1`, the IC50 is reported as 940 nM.
